{"source": "patent US20220305003A1", "about": "“METHODS OF TREATING CANCER WITH AN INHIBITOR OF ZNF827” (CHILDREN'S MEDICAL RESEARCH INSTITUTE, priority 2019, published 2022)", "molecules": {"B1": {"name": "ss telomeric G rich oligo (ssDNA)", "DNA": "TTAGGGTTAGGGTTAGGG"}}, "key": {"[1]": {"tested_on": "HT1080 and HT1080 6TG cells", "test": "γH2AX and ZNF827 foci by immunofluorescence", "settings": "topotecan 2 μg/mL 24 hr vs unchallenged"}, "HT1080 FUCCI cells": {"tested_on": "HT1080 FUCCI cells", "test": "Live cell imaging of cell cycle in FUCCI cells", "assay_type": "cell-based", "experimental": "To further characterise the impact of ZNF827 on the cell cycle, live cell imaging was conducted with HT1080 FUCCI cells, to monitor cell progression through the cell cycle in real-time following ZNF827 depletion. The FUCCI (fluorescence ubiquitination cell cycle indicator) cells were stably transfected with fluorescence-labelled cell cycle-regulated proteins, geminin (labelled by GFP) and Cdt1 (labelled by RFP), which are only expressed during specific phases of the cell cycle (FIG. 9c). Their expressions are used to classify cells by cell cycle phase in a live cell setting.\nHT1080 FUCCI cells were seeded in glass bottom 12-well plates (MakTek Corporation) the day before imaging at 30% confluency, to ensure that cells were actively cycling for the duration of the experiment. Media was replaced with phenol red free DMEM (Gibco) supplemented with 10% FCS and drug treatment immediately before transferring the plate to the microscope chamber. Imaging was performed on the Cell Observer Widefield Microscope (Zeiss) using a 20× objective at 37° C. with 10% CO2 in a XLmulti S1 full enclosure chamber. Cells were incubated in the XLmulti S1 full enclosure chamber for 2 hours prior to imaging. Three to four positions per well were captured with AxioCam (Zeiss) 506 Mono using ZEN software (Carl Zeiss) with images taken every 6 minutes for 60 hours. More than 15 cells were analysed at each position for each condition to confirm reproducibility."}, "ZNF827 ZnF1-9 deleted": {"biological_target": "T1, ZNF827 ZnF1-9 deleted (Homo sapiens)", "T1 chain": "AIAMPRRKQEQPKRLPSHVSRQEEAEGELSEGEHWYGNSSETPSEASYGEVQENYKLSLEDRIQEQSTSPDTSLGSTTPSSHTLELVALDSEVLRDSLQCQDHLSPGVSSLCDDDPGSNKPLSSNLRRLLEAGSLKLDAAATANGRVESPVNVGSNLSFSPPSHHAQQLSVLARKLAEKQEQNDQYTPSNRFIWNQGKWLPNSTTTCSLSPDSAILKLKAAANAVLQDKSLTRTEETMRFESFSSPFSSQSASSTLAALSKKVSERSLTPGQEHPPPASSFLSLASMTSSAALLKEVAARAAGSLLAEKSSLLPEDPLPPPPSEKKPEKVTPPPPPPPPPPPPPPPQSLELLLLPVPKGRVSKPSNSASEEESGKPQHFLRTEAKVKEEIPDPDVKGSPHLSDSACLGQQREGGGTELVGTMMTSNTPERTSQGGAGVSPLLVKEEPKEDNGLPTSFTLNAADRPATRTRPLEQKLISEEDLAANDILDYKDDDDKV", "test": "EMSA; interaction abolished", "settings": "tags: HaloTag (pHTN), expressed in HEK 293T, tag removed by HaloTEV cleavage; label: 32P (gamma)", "experimental": "Purified proteins were quantified using a BCA assay using the Pierce™ BCA Protein Assay Kit according to the manufacturer's instructions. Equal amounts of purified proteins were incubated in binding buffer (20 mM HEPES-KOH, pH7.9, 100 mM KCl, 0.8 mM ZnCl₂, 0.2 mM EDTA, 5% glycerol, 0.5 mM DTT and 0.5 mM PMSF) with 6.25 μg/mL poly (dI:dC) and 50 ng/μL BSA on ice for 20 minutes. ˜0.12 nM (˜2.5 fmol) γ-³²P labelled DNA oligonucleotide (see Table 3) probes were added to samples and incubated on ice for another 30 minutes. Binding reactions were loaded onto an 8% native acrylamide/bisacrylamide (19:1, Biorad) gel pre-run at 100V in 0.5× TB buffer (89 mM Tris, 89 mM boric acid) for 20 minutes. Gels were electrophoresed at 150 V for 150 minutes at 4° C., dried at 65° C. for 45 minutes, and then exposed to a Phosphor screen overnight. Gel images were obtained by scanning the screens with a Typhoon FLA9500 Imager (GE Life Sciences)."}, "[2]": {"settings": "72 hr siRNA knockdown in conjunction with topotecan 2 μg/mL 1 hr"}}, "data": [{"molecule": "CC[C@@]1(O)C(=O)OCc2c1cc1n(c2=O)Cc2cc3c(CN(C)C)c(O)ccc3nc2-1", "note": "[topotecan]", "values": [{"measurement": "ZNF827 foci induction", "setting": "[1]", "value": "striking induction of ZNF827"}, {"measurement": "γH2AX foci induction", "setting": "[1]", "value": "efficiently induced γH2AX foci"}]}, {"molecule": "siZNF827: Stealth RNAi siRNA ZNF827HSS135819 duplex oligoribonucleotides (Invitrogen), SEQ ID NO: 12 and 13 (chain 1 GGGCAGUCUUCUGGCUGAGAAAUCA; chain 2 UGAUUUCUCAGCCAGAAGACUGCCC; listed as RNA, further chemistry not given here)", "values": [{"measurement": "G1 duration / G1 arrest", "setting": "HT1080 FUCCI cells; 72 hr siRNA knockdown alone", "value": "strong G1 arrest comparable to topotecan treatment"}, {"measurement": "S/G2-M duration / G2/M arrest", "setting": "HT1080 FUCCI cells; 72 hr siRNA knockdown alone", "value": "no impact on G2/M by itself"}, {"measurement": "G1 duration / G1 arrest", "setting": "HT1080 FUCCI cells; [2]", "value": "further exacerbated G1 arrest"}, {"measurement": "S/G2-M duration / G2/M arrest", "setting": "HT1080 FUCCI cells; [2]", "value": "significant decrease in topotecan induced G2/M arrest"}]}, {"molecule": "B1", "values": [{"measurement": "binding result", "setting": "ZNF827 ZnF1-9 deleted", "value": "no binding"}]}]}
